Legend:
TH2 cells and Tregs = assay: A. fumigatus repeat sensitization airway disease model; format: in vivo, mouse
Protocol: A. fumigatus Fresenius (ATCC 13073) was grown for 7 days on potato dextrose agar plates (Thermo Scientific) at 37° C. Conidia were harvested by agitation in a flask with sterile PBS+0.1% Tween-20 and filtered through a 40 μm nylon mesh. Mice were intratracheally sensitized with 1.8×10^6 conidia in 50 μL of PBS on days 0, 7, and 11. On day 0 through 17 mice were treated daily with i.p. 25 mg/kg 4EGI-1 or vehicle. On day 18, mice were euthanized and lungs were collected along with mediastinal lymph node (MedLN) and blood. Serum was obtained and stored as described above.
Spleens, draining lymph nodes, and brains were dissociated with the plunger-end of a syringe and passed through a 70 μm nylon filter. Splenocytes were subject to RBC lysis with ACK (Ammonium-Chloride-Potassium). Ears were subject to mechanical dissociation with scissors prior to incubation in 1 mL PBS in a 48-well plate with 100 μg/mL Liberase TL and 20 μg/mL DNase I for 1.5 hours at 37° C. Following incubation, cells were further dissociated by passing through a syringe, quenched with PBS+2% FCS, and filtered through a 70 μm nylon filter. Lungs were mechanically dissociated with a razor blade and incubated in a 6 cm dish with 5 mLs RPMI containing 250 μg/mL collagenase, 50 μg/mL Liberase TL, 1 mg/mL hyaluronidase, and 200 μg/mL DNase I for 30 minutes. Following incubation, cells quenched with PBS+2% FCS, and filtered through a 70 μm nylon filter. Ear and lung cells were subject to lymphocyte isolation using a gradient (Lymphocyte Separation Medium; Cellgro). Vertebral columns were flushed with PBS through a 19-gauge needle to remove intact spinal cords. Spinal cords were subject to mechanical dissociation with scissors and incubation in 1 mL PBS with 200 μg/mL DNase I and 50 μg/mL Liberase TL for 30 minutes at 37° C. Following incubation, cells were quenched with PBS+2% FCS and filtered through a 70 μm nylon filter.
(§1) For quantification of OVA-specific IgG1, high-binding 96-well plates (Costar) were coated with 10 μg/mL OVA protein. For S. aureus-specific IgG1, plates were coated with heat-killed S. aureus (heat-killed at 80° C. for 30 min). For total IgE, plates were coated with 2 μg/mL rat anti-mouse IgE (Southern Biotech). Following overnight incubation at 4° C., plates were blocked with 1% BSA for 30 min at 37° C. After blocking, serum (diluted 1/20 initially then 1/2 down the plate) was incubated at 37° C. for 2 hours, plates were washed 3 times in PBS and then incubated with 1:1000 anti-mouse IgG1-HRP (Southern Biotech) or anti-mouse IgE-HRP (Southern Biotech) for 1 hour at 37° C. Plates were washed 3 times in PBS and incubated with TMB substrate. Following development, TMB Stop Solution (BioLegend®) was added and plates were read at […].
Lungs fixed in 4% PFA (ThermoFisher) and spinal cords fixed in 10% buffered formalin (Leica) were incubated overnight and moved to 70% ethanol prior to ethanol dehydration, xylene incubation, and paraffin embedding. Five-micron thick sections of lung were stained with hematoxylin and eosin (H&E), Periodic Acid-Schiff (PAS), or Masson's Trichrome Stain (MTS). Spinal cords were stained with H&E or Luxol fast blue and hematoxylin (LFB-H). Staining was visualized with an EVOS FLc microscope.

[1] = test system: CD4+ T cells from mice immunized with OVA/Alum; assay: In vitro treatment of mouse splenocytes with 4EGI-1 and SUnSET assay; format: cell-based
Protocol: Mice were immunized with 100 μg OVA/Alum and 7 days following, spleens were harvested and single-cell suspensions were generated. Splenocytes were incubated in mouse T cell media (detailed in Silencing of eIF4E in OT2 T cells by lentivirus transduction) with 0-25 μM 4EGI-1 for 4 hours at 37° C. Cells were stained with a live/dead viability marker and then for extracellular expression of CD4, CXCR5, PD-1, or ICOS or intranuclear expression of BCL6. For the SuNSET assay, cells from above were incubated 37° C. with 10 μg/mL puromycin for 10 minutes. Control samples were incubated with puromycin and 100 μg/mL cycloheximide. Cells were incubated with a live/dead viability marker and extracellular stain prior to fixation and permeabilization (BD Biosciences Fixation/Permeabilization Solution) and intracellular staining with anti-puromycin followed by anti-mouse IgG2a antibody conjugated to Alexa Fluor 488.

pre-existing TFH cells [2] = assay: OVA/Alum immunization, 4EGI-1 after formation of TFH cells; format: in vivo, mouse
Protocol: OVA protein (Sigma A5503) was diluted in PBS and then in 20 mg/mL Imject Alum (ThermoFisher 77161) and mixed at room temperature for 30 minutes prior to i.p. injection of 100 μg OVA in 200 μL. When stated, mice were treated i.p. daily from day 0 to 6 or day 0 to 13 (just for TFR analysis) following OVA/Alum immunization with 25 mg/kg 4EGI-1 (MedChemExpress) or from day 7 to 13 following OVA/Alum immunization with 50 mg/kg or 75 mg/kg 4EGI-1. Vehicle control mice were administered 6 μL DMSO in 194 μL PBS i.p.
PVDF-coated 96-well plates (Millipore) were activated with methanol for 2 minutes, washed with PBS, and coated with 4 μg/mL OVA overnight at 4° C. Plates were blocked with 1% BSA for 2 hours at 37° C. prior to incubation with 1×10^7 splenocytes in RPMI containing 2% Ultra-low IgG FCS, 55 μM 2ME, and 100 U/mL penicillin and 100 μg/mL streptomycin in the top well. Cells were diluted by 1/2 each row going down the plate and incubated immobile overnight at 37° C. Plates were washed with water+0.05% Tween 20 for 5 min prior to 3 washes in PBS+0.05% Tween-20 for 10 minutes. Plates were incubated with 1:1000 HRP-coupled goat anti-mouse IgG1 antibody (Southern Biotech) in PBS+0.05% Tween 20 for 2 h prior to 3 washes in PBS+0.05% Tween 20 and incubation in tetramethylbenzidine (TMB) ELISA substrate buffer (ThermoFisher). Plates were washed once in distilled deionized water and spots were manually enumerated and antibody-secreting cells (ASC) per million splenocytes was determined.
as §1

pre-existing TFH cells [3] = details: 75 mg/kg, mice (Sekiyama et al.); cited from earlier work
[4] = 25 mg/kg daily i.p., lung sections
[5] = mediastinal lymph nodes, day 18
[6] = 4EGI-1 up to 25 μM, 4 hours, mouse CD4+ T cells
[7] = 10-25 μM 4EGI-1, 4 hours, mouse CD4+ lymphocytes in culture
[8] = 75 mg/kg, day 7 to 13 after OVA/Alum
[9] = 4EGI-1 day 7 to 13 after OVA/Alum

O=C(O)C(Cc1ccccc1[N+](=O)[O-])=NNc1nc(-c2ccc(Cl)c(Cl)c2)cs1 (mixture of isomers) [4EGI-1]
levels of pulmonary TH2 cells (GATA3+ or IL-13+) (TH2 cells and Tregs; 25 mg/kg daily i.p., day 18): no effect | levels of pulmonary Tregs (Foxp3+) (TH2 cells and Tregs; 25 mg/kg daily i.p., day 18): no effect | levels of pulmonary eosinophils (TH2 cells and Tregs; 25 mg/kg daily i.p., day 18): no effect | airway inflammation (TH2 cells and Tregs; [4]): no effect | mucin production (TH2 cells and Tregs; [4]): no effect | formation of GC B cells in draining lymph nodes (TH2 cells and Tregs; [5]): strongly reduced | formation of TFH cells in draining lymph nodes (TH2 cells and Tregs; [5]): strongly reduced | secretion of class-switched immunoglobulins (TH2 cells and Tregs; serum total IgE, day 18): strongly reduced | levels of CXCR5 protein [1, 6]: unchanged | levels of ICOS protein [1, 6]: unchanged | levels of PD-1 protein [1, 6]: unchanged | reduction of BCL6 protein levels [1, 6]: ~3 fold | cell viability [1, 7]: without reducing | reduction of protein synthesis (SUnSET) [1, 7]: 3-4 fold | reduction of CD4+ T cell protein synthesis (SUnSET) (pre-existing TFH cells [2]; [8]): approximately half | total number of CD4+ T cells in spleen (pre-existing TFH cells [2]; [8]): without significantly reducing | reduction of levels of GC B cells (pre-existing TFH cells [2]; [9]): 3 fold | reduction of levels of OVA-specific IgG1 ASC cells (pre-existing TFH cells [2]; [9]): 3 fold | reduction of levels of pre-existing splenic CD4+ TFH cells (pre-existing TFH cells [2]; [9]): 3 fold | serum OVA-specific IgG1 antibody (pre-existing TFH cells [2]; [9]): moderately reduced | safety of the dose (pre-existing TFH cells [3]): within its safety range
